Measurements reported in the supplement of paper PMC13380429.

Tests used:
Details in all cases: 72 h
U2OS [1] = assay: cell viability relative to DMSO; higher = less toxic
Vero E6 [2] = assay: as above
Calu-3 [3] = assay: as above
Caco-2 [4] = assay: as above
HepG2 [5] = assay: as above
U2OS [6] = assay: drug sensitivity score (DSS) for viability; higher = more toxic; extreme values may be limits of the assay
Vero E6 [7] = assay: as above
Calu-3 [8] = assay: as above
Caco-2 [9] = assay: as above
HepG2 [10] = assay: as above
U2OS [11] = assay: relative viability EC50 (midpoint between 100% and the lowest measured viability); higher = less toxic
Vero E6 [12] = assay: as above
Calu-3 [13] = assay: as above
Caco-2 [14] = assay: as above
HepG2 [15] = assay: as above

SMILES	cell viability (U2OS [1]; 1 nM)	cell viability (U2OS [1]; 10 nM)	cell viability (U2OS [1]; 100 nM)	cell viability (U2OS [1]; 1000 nM)	cell viability (U2OS [1]; 10000 nM)	cell viability (Vero E6 [2]; 1 nM)	cell viability (Vero E6 [2]; 10 nM)	cell viability (Vero E6 [2]; 100 nM)	cell viability (Vero E6 [2]; 1000 nM)	cell viability (Vero E6 [2]; 10000 nM)	cell viability (Calu-3 [3]; 1 nM)	cell viability (Calu-3 [3]; 10 nM)	cell viability (Calu-3 [3]; 100 nM)	cell viability (Calu-3 [3]; 1000 nM)	cell viability (Calu-3 [3]; 10000 nM)	cell viability (Caco-2 [4]; 1 nM)	cell viability (Caco-2 [4]; 10 nM)	cell viability (Caco-2 [4]; 100 nM)	cell viability (Caco-2 [4]; 1000 nM)	cell viability (Caco-2 [4]; 10000 nM)	cell viability (HepG2 [5]; 1 nM)	cell viability (HepG2 [5]; 10 nM)	cell viability (HepG2 [5]; 100 nM)	cell viability (HepG2 [5]; 1000 nM)	cell viability (HepG2 [5]; 10000 nM)	drug sensitivity score (U2OS [6])	drug sensitivity score (Vero E6 [7])	drug sensitivity score (Calu-3 [8])	drug sensitivity score (Caco-2 [9])	drug sensitivity score (HepG2 [10])	relative viability EC50 (U2OS [11])	relative viability EC50 (Vero E6 [12])	relative viability EC50 (Calu-3 [13])	relative viability EC50 (Caco-2 [14])	relative viability EC50 (HepG2 [15])
CNC(=O)[C@@H](Cc1ccccc1)N(C)C(=O)[C@@H](Cc1ccc2ccccc2c1)N(C)C(=O)/C=C/CC(C)(C)N [tabimorelin]	99.9%	101%	96.8%	103%	98.3%	95.8%	102%	101%	102%	99.1%	96.4%	100%	100%	104%	88.2%	99.8%	104%	103%	95.4%	92.3%	105%	96.5%	106%	87.3%	96.5%	0	0	0	0	0.6	> 10 µM	> 10 µM	> 10 µM	> 10 µM	> 10 µM
O=C(O[C@H]1CN2CCC1CC2)N(Cc1cc(F)c(F)c(F)c1)c1cccc(F)c1 [tarafenacin]	95.7%	102%	100%	103%	91.3%	99.7%	99.6%	107%	98.7%	90.2%	96.4%	106%	106%	113%	96.2%	102%	96.5%	91.3%	104%	95.7%	115%	106%	108%	96.5%	99.3%	0	0	0	0	0	> 10 µM	> 10 µM	> 10 µM	> 10 µM	> 10 µM
CC[C@H]1OC(=O)[C@H](C)C(=O)[C@H](C)[C@@H](O[C@@H]2O[C@H](C)C[C@H](N(C)C)[C@H]2O)[C@](C)(OC)C[C@@H](C)C(=O)[C@H](C)[C@H]2N(CCCCn3cnc(-c4cccnc4)c3)C(=O)O[C@]12C [telithromycin]	88%	95.4%	95%	95.2%	97%	98.1%	98.9%	96.1%	96.1%	106%	107%	101%	89%	99.8%	100%	100%	99.5%	100%	104%	89%	105%	96.6%	103%	101%	109%	0	0	0	0	0	> 10 µM	> 10 µM	> 10 µM	> 10 µM	> 10 µM
CC(C)OC(=O)OCOP(=O)(CO[C@H](C)Cn1cnc2c(N)ncnc21)OCOC(=O)OC(C)C [tenofovir-disoproxil]	96.2%	101%	92.6%	103%	95.8%	102%	94.9%	96%	94.3%	96.7%	97.1%	104%	97.1%	95.4%	80.8%	96.3%	93%	93.8%	97.2%	89%	102%	101%	109%	82.2%	44.6%	0	0	1	0	5.6	> 10 µM	> 10 µM	> 10 µM	> 10 µM	1.35 µM
CN1C(C(=O)Nc2ccccn2)=C(O)c2sccc2S1(=O)=O [tenoxicam]	93.3%	94.4%	93.1%	97%	93.1%	98.5%	96.2%	103%	98.7%	99.8%	99.3%	102%	90.7%	106%	98.2%	98%	102%	96.2%	98.6%	92.6%	94.9%	96%	96.5%	88.5%	101%	0	0	0	0	0	> 10 µM	> 10 µM	> 10 µM	> 10 µM	> 10 µM
Cc1ncc(C[n+]2csc(CCO)c2C)c(N)n1 [thiamine]	104%	104%	102%	105%	99.1%	95.7%	108%	98.4%	102%	99.7%	104%	91.6%	99.6%	104%	105%	107%	103%	100%	96.9%	102%	96%	103%	96.2%	105%	88.2%	0	0	0	0	0	> 10 µM	> 10 µM	> 10 µM	> 10 µM	> 10 µM
O=c1n(CCCN2CCN(c3cccc(Cl)c3)CC2)nc2ccccn12 [trazodone]	102%	104%	98.5%	97.2%	98.3%	98.8%	101%	95.6%	103%	101%	105%	92.4%	95.1%	79.7%	99.3%	99.5%	98.2%	97.5%	89.6%	96.4%	95.8%	99%	94.1%	108%	91%	0	0	0	0	0	> 10 µM	> 10 µM	> 10 µM	> 10 µM	> 10 µM
O=C(Nc1ccc(Cl)cc1)Nc1ccc(Cl)c(Cl)c1 [triclocarban]	92.6%	96.5%	94.2%	102%	97.2%	101%	89.4%	103%	86.8%	95.4%	97.2%	93.3%	97.3%	88.8%	100%	82.8%	59.4%	94.2%	104%	87.9%	90%	88.1%	99.6%	98.1%	97.1%	0	0	0	0	0	> 10 µM	> 10 µM	> 10 µM	> 10 µM	> 10 µM
COc1cc(C(=O)NCc2ccc(OCCN(C)C)cc2)cc(OC)c1OC [trimethobenzamide]	97.6%	93.8%	102%	97.4%	100%	96.1%	99.7%	93.2%	99.1%	99.9%	103%	84.6%	98.2%	93.6%	101%	95.9%	94.3%	99.2%	87.8%	99.7%	98.2%	106%	99.5%	101%	107%	0	0	0	0	0	> 10 µM	> 10 µM	> 10 µM	> 10 µM	> 10 µM
O=C(O)c1ccccc1NCCc1ccccc1 [tromaril]	102%	102%	101%	96.4%	101%	97.5%	99.5%	99%	102%	95.5%	106%	94.5%	99.3%	90.1%	106%	97%	97%	96.9%	96.2%	102%	102%	101%	93.8%	104%	95%	0	0	0	0	0	> 10 µM	> 10 µM	> 10 µM	> 10 µM	> 10 µM
N#C/C(=C\c1ccc(O)c(O)c1)C(N)=O [tyrphostin-AG-99]	100%	94.7%	102%	105%	100%	94%	98.6%	98.3%	93.4%	107%	102%	97.2%	103%	111%	112%	96.9%	92.5%	96.4%	92.2%	103%	96.3%	112%	104%	110%	102%	0	0	0	0	0	> 10 µM	> 10 µM	> 10 µM	> 10 µM	> 10 µM
CCOC(N)=O [urethane]	101%	102%	97.6%	104%	97.9%	98.9%	96.7%	98%	100%	104%	105%	103%	90.5%	107%	112%	93.5%	97.3%	98.4%	95.5%	102%	95.8%	106%	85%	97.4%	105%	0	0	0	0	0	> 10 µM	> 10 µM	> 10 µM	> 10 µM	> 10 µM
CC(C)[C@H](N)C(=O)OCCOCn1cnc2c(=O)nc(N)[nH]c21 [valaciclovir]	94%	101%	96%	105%	110%	90.1%	92%	86.5%	86.1%	105%	103%	98.8%	88.4%	111%	90.3%	103%	96%	104%	99.4%	104%	103%	92.5%	104%	99.5%	101%	0	0	0	0	0	> 10 µM	> 10 µM	> 10 µM	> 10 µM	> 10 µM
COc1ccc(CCN(C)CCCN2CCc3cc(OC)c(OC)cc3CC2=O)cc1OC [zatebradine]	101%	94.5%	99.1%	97.6%	97.6%	94.1%	98.4%	93.4%	96%	88%	97%	100%	92.9%	105%	94.2%	97.2%	90.5%	92.9%	99.6%	94.4%	105%	99.4%	100%	103%	97.7%	0	0	0	0	0	> 10 µM	> 10 µM	> 10 µM	> 10 µM	> 10 µM
